Literature values, collected in US20050070524A1, “Compositions of a cyclooxygenase-2 selective inhibitor and an anticonvulsant agent for the treatment of central nervous system disorders” (Pharmacia Corporation, priority 2003, published 2005).

How the values were obtained:
[1] = tested on: high-voltage-activated Ca^2+ currents; details: rat cortical neurons
[2] = tested on: high-voltage-activated Ca^2+ channels; details: isolated CA1 hippocampal neurons of rats

Structure (SMILES)	inhibition of high-voltage-activated Ca^2+ currents [1]	inhibition of high-voltage-activated Ca^2+ channels [2]
Nc1nnc(-c2cccc(Cl)c2Cl)c(N)n1 [lamotrigine]	large dose-dependent inhibition	
CC[C@@H](C(N)=O)N1CCCC1=O [levetiracetam]		directly and irreversibly inhibited
